The values that follow come from ChEMBL document CHEMBL1201862, “PubChem BioAssay data set” (2004).

Among the test systems are DLD-1; KM-20L2; HOP-18; DMS-114; M19-MEL; LXFL 529; XF498; SNB-78; RXF 631.
Experiment in all cases: inhibition of tumour cell growth, NCI panel, 48 h

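48-hour exposure; five concentrations; linearly interpolated endpoints. GI50: concentration for 50% inhibition of growth.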 Calls of active or inactive are those of the source. No stated cut-off is given here; in the data, active = GI50 up to about 1.1 µM and inactive = higher.

With `COc1ccc(N(C)Sc2ccccc2)cc1`, the GI50 with DLD-1 is 47.5 µM (inactive); in the assay with KM-20L2 it was 55.6 µM (inactive); in the assay on HOP-18, 68.4 µM (inactive); in the assay with DMS-114 it was 36.6 µM (inactive); with M19-MEL it was 69 µM (inactive); in the assay on LXFL 529 it was 45.3 µM (inactive). The GI50 in the assay with XF498 is 24 µM (inactive); in the assay on SNB-78 it was > 100 µM (inactive).
In the case of `Cc1cc2c3ccccc3n(C)c2c2c1C(=O)C=CC2=O`, the GI50 is 12.7 µM (inactive) in the assay with DLD-1; 6.05 µM (inactive) with DMS-114; 18.2 µM (inactive) with M19-MEL; 3.99 µM (inactive) in the assay with LXFL 529; 16.3 µM (inactive) in the assay with XF498; 17.4 µM (inactive) in the assay on SNB-78.
As to `O=C1/C(=C/c2ccc3c(c2)OCO3)SC2C=Nc3ccccc3N12` (stereo not given), the GI50 in the assay with DLD-1 was > 100 µM (inactive); in the assay with KM-20L2, > 100 µM (inactive); in the assay on HOP-18, > 100 µM (inactive); with DMS-114, 93.5 µM (inactive); with M19-MEL, > 100 µM (inactive); in the assay with LXFL 529 it was > 100 µM (inactive). Also, the GI50 in the assay on XF498 is > 100 µM (inactive); in the assay with SNB-78, 92.9 µM (inactive); in the assay on RXF 631, > 100 µM (inactive).
As for `CN(C)NC1=C([N+](=O)[O-])C=NN(c2ccccc2)C1`, the GI50 with DLD-1 was 1.83 µM (inactive); in the assay with KM-20L2, 1.9 µM (inactive); in the assay with HOP-18 it was 1.81 µM (inactive); in the assay on DMS-114, 1.84 µM (inactive); in the assay with M19-MEL, 1.81 µM (inactive); with LXFL 529 it was 1.65 µM (inactive). Further, the results for the GI50 in the assay with XF498, with SNB-78 and with RXF 631 were 2.36 µM (inactive), 2.17 µM (inactive) and 1.53 µM (inactive), respectively.
`CC1(c2ccccc2)CC12C(=O)NC(=O)NC2=O` (stereo not given): the GI50 in the assay with DLD-1, in the assay with KM-20L2, with DMS-114, in the assay with M19-MEL, in the assay on LXFL 529 and in the assay with XF498 was > 100 µM (inactive) in each case. Moreover, the GI50 with SNB-78 was > 100 µM (inactive).
As for `COCOCCCCCO[Si](C)(C)C(C)(C)C`, the GI50 was 31.6 µM (inactive) in the assay on DLD-1; 22.8 µM (inactive) in the assay with KM-20L2; 30.8 µM (inactive) in the assay on HOP-18; 17.5 µM (inactive) with DMS-114; 28.7 µM (inactive) in the assay on M19-MEL; 26.9 µM (inactive) in the assay with LXFL 529. In addition, the figures for the GI50 with XF498, in the assay on SNB-78 and in the assay on RXF 631 were 15.7 µM (inactive), 22.8 µM (inactive) and 19.4 µM (inactive), respectively.
For `COc1ccc(N2C(=O)[C@H]3[C@H]4CC(C(C)(C)C)CC[C@H]4c4c(n(C)c5ccccc45)[C@H]3C2=O)cc1` (stereo not given in full), the GI50 in the assay with DLD-1 was < 0.01 µM (active); with HOP-18, > 100 µM (inactive); in the assay on DMS-114, > 100 µM (inactive); in the assay with M19-MEL, < 0.01 µM (active); in the assay with LXFL 529, > 100 µM (inactive); with XF498, > 100 µM (inactive).
With `CN(C)CCNC(=O)c1cccc2ccc(-c3ccc(O)cc3)nc12`, the GI50 with DLD-1 is 2.47 µM (inactive); in the assay with KM-20L2, 6.68 µM (inactive); with HOP-18, 2.81 µM (inactive); in the assay with DMS-114 it was 2.08 µM (inactive); in the assay on M19-MEL, 1.9 µM (inactive); with SNB-78, 4.43 µM (inactive).
As to `COc1ccc(C2=C[C@]3(O)CCCN3C[C@@H]2c2ccc(OC)c(OC)c2)cc1`, the GI50 with DLD-1, in the assay with KM-20L2, in the assay with HOP-18, in the assay on LXFL 529, with XF498 and in the assay with SNB-78 was < 0.0001 µM (active) in each case.
As to `COc1ccc(OC)c(NC(=O)CCC/C(CC(=O)c2ccc(O)c(OC)c2)=N\NC(=O)C[N+](C)(C)C)c1`, the GI50 in the assay on DLD-1, in the assay on KM-20L2, with HOP-18, in the assay with DMS-114, in the assay with M19-MEL and with LXFL 529 was > 100 µM (inactive) throughout. For the same compound, the GI50 in the assay on XF498 and in the assay on RXF 631 was > 100 µM (inactive) throughout.
Consider `C=C=C(C(=O)OC)[S+]([O-])c1ccc([N+](=O)[O-])cc1[N+](=O)[O-]` (stereo not given), for which the GI50 in the assay with DLD-1 was 16.2 µM (inactive); with KM-20L2 it was 26.5 µM (inactive); in the assay on HOP-18, 44.2 µM (inactive); in the assay on DMS-114, 21 µM (inactive); in the assay on M19-MEL it was 25.4 µM (inactive); with LXFL 529, 16.8 µM (inactive). Further, the GI50 in the assay on XF498 was 39.1 µM (inactive); in the assay on RXF 631, 42 µM (inactive).
Turning to `O=C(c1ccc(Cl)cc1)c1ccc(OCCCOc2ccc(C(=O)c3ccc(Cl)cc3)cc2)cc1`, the GI50 with DLD-1, in the assay on KM-20L2, with DMS-114, in the assay with M19-MEL, with LXFL 529 and with XF498 was > 100 µM (inactive) each time.
Consider `CC1CC(C)C(=O)C(C(=O)CC2CC(=O)NC2=O)C1` (stereo not given), for which the GI50 in the assay on DLD-1, in the assay with KM-20L2, with HOP-18, in the assay with DMS-114, in the assay on M19-MEL and in the assay on LXFL 529 was > 100 µM (inactive) in each case. Besides, the GI50 was > 100 µM (inactive) with XF498, > 100 µM (inactive) in the assay on SNB-78 and 72.6 µM (inactive) in the assay with RXF 631.
As to `Cc1c(CCCl)c(Cl)n2c(nc3ccccc32)c1C#N`, the GI50 in the assay with DLD-1 is 1.12 µM (active); in the assay with KM-20L2, 0.641 µM (active); in the assay on HOP-18, 1.51 µM (inactive); in the assay on DMS-114, 1.13 µM (inactive); in the assay with M19-MEL it was 4.21 µM (inactive); in the assay with LXFL 529, 0.459 µM (active). Further, the GI50 is 1.77 µM (inactive) with SNB-78 and 0.568 µM (active) in the assay with RXF 631.
Turning to `Cc1cc(NS(=O)(=O)c2ccc(Nc3c4ccccc4nc4c(C(=O)Nc5ccc(S(=O)(=O)N=C(N)N)cc5)ccc(Cl)c34)cc2)no1`, the GI50 in the assay with DLD-1 was 47.3 µM (inactive); in the assay on KM-20L2, 98.4 µM (inactive); in the assay with HOP-18, 16.4 µM (inactive); with DMS-114, 27.1 µM (inactive); with M19-MEL it was 39.8 µM (inactive); with LXFL 529, 31.3 µM (inactive). Moreover, the GI50 in the assay with XF498 is 31.4 µM (inactive); with SNB-78, 23.4 µM (inactive).
For `O=C(O)CSc1nnc(-c2ccco2)[nH]1`, the GI50 in the assay with DLD-1, in the assay with KM-20L2, in the assay on M19-MEL, in the assay on LXFL 529, in the assay on XF498 and with SNB-78 was > 100 µM (inactive) each time. The GI50 in the assay with RXF 631 was > 100 µM (inactive).
As to `Cc1cc([N+](=O)[O-])c(S(=O)(=O)c2ccccc2)c([N+](=O)[O-])c1`, the GI50 is 4 µM (inactive) in the assay with DLD-1; 17.9 µM (inactive) in the assay on KM-20L2; 16.1 µM (inactive) with HOP-18; 3.14 µM (inactive) in the assay with DMS-114; 11.7 µM (inactive) in the assay with M19-MEL; 3.66 µM (inactive) with LXFL 529. Also, the GI50 with XF498 is 4.35 µM (inactive); with SNB-78, 17.2 µM (inactive); with RXF 631, 38.6 µM (inactive).
For the compound `CN(C)CCNC(=O)c1cccc2c1nc(-c1ccccn1)c1ccccc12`, the GI50 was 11.9 µM (inactive) with DLD-1; 21.4 µM (inactive) in the assay on HOP-18; 18.3 µM (inactive) in the assay on DMS-114; 18.1 µM (inactive) in the assay with M19-MEL; 25.3 µM (inactive) in the assay on SNB-78.
Regarding `COc1ccc(C(=O)NCCC2=CCCCC2)cc1`, the GI50 in the assay with DLD-1, in the assay with KM-20L2, in the assay on HOP-18, with DMS-114, with M19-MEL and in the assay with XF498 was > 100 µM (inactive) throughout. Moreover, in the assay with SNB-78, the GI50 is > 100 µM (inactive).
In the case of `CCn1c(CSc2nc(-c3ccccc3)c(-c3ccccc3)[nH]2)n[nH]c1=S`, the GI50 with DLD-1, with KM-20L2, with DMS-114, in the assay with M19-MEL, with LXFL 529 and in the assay with XF498 was > 100 µM (inactive) each time. Besides, the GI50 in the assay on SNB-78 was > 100 µM (inactive).
With `CCn1cnc2c(=S)nc(N)[nH]c21`, the GI50 in the assay with DLD-1, in the assay with KM-20L2, in the assay with DMS-114, with M19-MEL, in the assay on LXFL 529 and in the assay on SNB-78 was > 100 µM (inactive) in each case.
For the compound `COc1cc(Br)c(/C=N/N=C(\N)NO)cc1OC`, the GI50 with DLD-1 is 25.9 µM (inactive); in the assay on KM-20L2 it was 5.73 µM (inactive); in the assay with HOP-18, 4.72 µM (inactive); with DMS-114 it was 12.4 µM (inactive); in the assay on M19-MEL, 19.6 µM (inactive); with LXFL 529, 10.9 µM (inactive). Besides, the GI50 with XF498 was 13.6 µM (inactive); in the assay with SNB-78, 73.3 µM (inactive); with RXF 631, 11.6 µM (inactive).
Take `C#Cc1cccc(N2C(=O)CC(=P(c3ccccc3)(c3ccccc3)c3ccccc3)C2=O)c1`: the GI50 in the assay with DLD-1 was > 100 µM (inactive); in the assay on DMS-114, 19.9 µM (inactive); in the assay on M19-MEL, 42.9 µM (inactive); in the assay with LXFL 529, 11.8 µM (inactive); in the assay with XF498, 0.405 µM (active); in the assay with SNB-78 it was > 100 µM (inactive).
For the compound `[O-][S+]1CSCS1` (stereo not given), the GI50 in the assay with DLD-1, in the assay on KM-20L2, in the assay with HOP-18, with DMS-114, with M19-MEL and in the assay with LXFL 529 was > 100 µM (inactive) each time. The GI50 in the assay on XF498 was > 100 µM (inactive); with SNB-78 it was 91.8 µM (inactive); in the assay with RXF 631 it was 85.9 µM (inactive).
Regarding `COc1ccc(O)c(C(=O)CCC(=O)O)c1`, the GI50 in the assay on DLD-1, with DMS-114, in the assay on M19-MEL, in the assay with LXFL 529, in the assay on XF498 and with SNB-78 was > 100 µM (inactive) each time. In addition, in the assay on RXF 631, the GI50 is > 100 µM (inactive).
